Results published in ChEMBL document CHEMBL3868610, “Novel bicyclo[3.1.0]hexane analogs as antagonists of metabotropic glutamate 2/3 receptors for the treatment of depression” (Bioorg Med Chem Lett, 2016).
≈ marks a conversion by molar mass, not a printed value. Calls of active or inactive are those of the source. The rule behind the calls is not given here.

How the values were obtained:
[1] = target: T1, Metabotropic glutamate receptor 3 (Homo sapiens, UniProt Q14832); assay: Agonist activity at recombinant human mGlu3 receptor expressed in hamster AV12 cells co-expressing human EAAT1 assessed as increase in forskolin-stimulated cAMP formation up to 25 uM after 20 mins by HTRF assay; assay type: functional, cell-based
[2] = Unbound fraction in monkey plasma at 1 uM; assay type: ADME, cell-free, Macaca mulatta; conditions: rhesus monkey
[3] = target: T2, Metabotropic glutamate receptor 1 (Homo sapiens, UniProt Q13255); assay: Antagonist activity at recombinant human mGlu1 receptor expressed in hamster AV12 cells coexpressing human EAAT1/Galpha1s assessed as inhibition of Ca2+ flux by Fluo-3-AM dye based FLIPR assay; assay type: functional, cell-based
[4] = Half life in rat at 10 mg/kg, ip; assay type: ADME, organism-based; conditions: in vivo
[5] = AUC (0 to 24 hrs) in rat at 5 mg/kg, po; assay type: ADME, organism-based; set-up: time < 24 hr, dose 5 mg/kg, route oral; conditions: in vivo
[6] = Half life in rat at 5 mg/kg, po; assay type: ADME, organism-based; conditions: in vivo
CYP3A4 = CYP3A4 (Homo sapiens, UniProt P08684); assay: Inhibition of human CYP3A4 at 10 uM; assay type: ADME
[7] = target: Voltage-gated inwardly rectifying potassium channel KCNH2 (Homo sapiens, UniProt Q12809); assay: Displacement of [3H]-Astemizole from human ERG by membrane binding assay
[8] = Plasma concentration in NIH Swiss Webster mouse at 0.3 mg/kg, ip at 30 mins; assay type: ADME, organism-based
[9] = Plasma concentration in NIH Swiss Webster mouse at 3 mg/kg, ip at 30 mins; assay type: ADME, organism-based
[10] = target: T3, Metabotropic glutamate receptor 4 (Homo sapiens, UniProt Q14833); assay: Antagonist activity at recombinant human mGlu4 receptor expressed in hamster AV12 cells co-expressing human EAAT1/Galpha1s assessed as inhibition of Ca2+ flux by Fluo-3-AM dye based FLIPR assay; assay type: functional, cell-based
[11] = Cmax in rat at 10 mg/kg, ip; assay type: ADME, organism-based; set-up: dose 10 mg/kg, route intraperitoneal; conditions: in vivo
ABCB1 (P-gp) = ABCB1 (P-gp) (Homo sapiens, UniProt P08183); assay: Inhibition of human ABCB1 expressed in MDCK cells at 5 to 25 uM relative to control; assay type: ADME, cell-based; conditions: MDCK-MDR1
[12] = target: Metabotropic glutamate receptor 6 (Homo sapiens, UniProt O15303); assay: Agonist activity at recombinant human mGlu6 receptor expressed in hamster AV12 cells co-expressing EAAT1 assessed as induction of forskolin-stimulated cAMP formation after 20 mins by HTRF assay; assay type: functional, cell-based
[13] = Aqueous solubility of compound at pH 7.4; assay type: physicochemical; conditions: aqueous medium
[14] = Volume of distribution at steady state in rat at 1 mg/kg, iv; assay type: ADME, organism-based; conditions: in vivo, read-out: Vdss
[15] = Drug metabolism in dog microsomes at 4 uM after 30 mins; assay type: ADME, Canis lupus familiaris, Microsome; conditions: read-out: Drug metabolism
[16] = target: T4, Metabotropic glutamate receptor 5 (Homo sapiens, UniProt P41594); assay: Antagonist activity at recombinant human mGlu5 receptor expressed in hamster AV12 cells coexpressing human EAAT1/Galpha1s assessed as inhibition of Ca2+ flux by Fluo-3-AM dye based FLIPR assay; assay type: functional, cell-based
[17] = target: T1, Metabotropic glutamate receptor 3; assay: Antagonist activity at recombinant human mGlu3 receptor expressed in hamster AV12 cells assessed as inhibition of DCG-4-inhibited forskolin-stimulated cAMP formation up to 25 uM after 20 mins by HTRF assay relative to control; assay type: functional, cell-based
Target sequence in this assay (Q14832 23-879 limits assumed): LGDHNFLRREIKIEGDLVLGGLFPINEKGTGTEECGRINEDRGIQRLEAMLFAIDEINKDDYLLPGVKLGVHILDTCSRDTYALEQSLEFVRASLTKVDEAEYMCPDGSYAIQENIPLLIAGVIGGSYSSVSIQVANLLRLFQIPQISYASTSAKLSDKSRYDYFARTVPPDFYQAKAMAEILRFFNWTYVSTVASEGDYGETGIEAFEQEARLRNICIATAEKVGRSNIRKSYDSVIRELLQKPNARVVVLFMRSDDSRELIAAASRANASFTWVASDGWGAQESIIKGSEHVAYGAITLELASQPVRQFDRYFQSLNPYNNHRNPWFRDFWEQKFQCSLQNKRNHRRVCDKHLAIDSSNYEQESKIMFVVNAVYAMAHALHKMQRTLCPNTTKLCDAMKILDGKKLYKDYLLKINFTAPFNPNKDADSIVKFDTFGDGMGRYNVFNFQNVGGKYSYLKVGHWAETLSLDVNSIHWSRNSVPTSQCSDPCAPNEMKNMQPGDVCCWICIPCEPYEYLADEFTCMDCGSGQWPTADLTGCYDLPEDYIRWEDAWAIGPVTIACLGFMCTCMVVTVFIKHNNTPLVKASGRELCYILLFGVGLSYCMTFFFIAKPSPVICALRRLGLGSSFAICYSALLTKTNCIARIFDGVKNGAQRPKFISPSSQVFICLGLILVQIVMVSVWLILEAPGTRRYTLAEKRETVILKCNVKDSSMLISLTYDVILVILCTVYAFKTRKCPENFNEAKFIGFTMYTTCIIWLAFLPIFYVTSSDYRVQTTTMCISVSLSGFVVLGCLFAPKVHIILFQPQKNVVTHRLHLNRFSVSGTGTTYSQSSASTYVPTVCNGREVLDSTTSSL

[18] = Drug uptake in NIH Swiss Webster mouse brain at 3 mg/kg, ip at 30 mins; assay type: ADME, organism-based; conditions: read-out: Drug uptake
[19] = Antidepressant activity in rat EEG model assessed as accumulated wake time at 3 mg/kg, ip measured over 7 hrs relative to control; assay type: functional, organism-based
[20] = target: T5, Metabotropic glutamate receptor 2 (Homo sapiens, UniProt Q14416); assay: Agonist activity at recombinant human mGlu2 receptor expressed in hamster AV12 cells co-expressing human EAAT1 assessed as increase in forskolin-stimulated cAMP formation up to 25 uM after 20 mins by HTRF assay; assay type: functional, cell-based
Target sequence in this assay (Q14416 whole entry): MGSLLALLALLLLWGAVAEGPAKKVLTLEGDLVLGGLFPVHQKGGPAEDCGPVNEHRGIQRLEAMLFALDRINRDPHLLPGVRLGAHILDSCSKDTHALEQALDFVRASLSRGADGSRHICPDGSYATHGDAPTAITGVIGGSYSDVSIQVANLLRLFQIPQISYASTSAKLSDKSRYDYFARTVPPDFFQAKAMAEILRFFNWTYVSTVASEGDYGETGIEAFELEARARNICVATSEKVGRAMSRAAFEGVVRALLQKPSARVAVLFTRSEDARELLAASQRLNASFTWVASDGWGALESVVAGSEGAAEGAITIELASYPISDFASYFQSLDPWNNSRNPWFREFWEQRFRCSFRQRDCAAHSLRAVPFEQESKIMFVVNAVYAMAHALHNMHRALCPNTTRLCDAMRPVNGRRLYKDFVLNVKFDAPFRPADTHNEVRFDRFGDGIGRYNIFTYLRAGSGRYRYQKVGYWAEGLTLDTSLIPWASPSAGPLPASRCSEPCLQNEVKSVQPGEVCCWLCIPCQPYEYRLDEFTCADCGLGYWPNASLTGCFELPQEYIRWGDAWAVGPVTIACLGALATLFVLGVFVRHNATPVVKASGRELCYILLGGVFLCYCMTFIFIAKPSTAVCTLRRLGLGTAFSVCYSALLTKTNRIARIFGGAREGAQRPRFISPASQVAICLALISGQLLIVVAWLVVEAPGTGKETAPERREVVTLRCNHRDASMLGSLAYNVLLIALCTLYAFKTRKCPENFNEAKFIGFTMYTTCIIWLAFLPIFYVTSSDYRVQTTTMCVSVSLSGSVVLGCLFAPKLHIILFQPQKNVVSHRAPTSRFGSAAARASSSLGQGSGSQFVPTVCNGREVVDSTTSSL

Rattus norvegicus = assay: Toxicity in rat assessed as NREM sleep at 3 to 10 mg/kg, ip; assay type: organism-based; conditions: in vivo
[21] = AUC (0 to 24 hrs) in rat at 10 mg/kg, ip; assay type: ADME, organism-based; set-up: dose 10 mg/kg, time < 24 hr, route intraperitoneal; conditions: in vivo
[22] = Antidepressant activity in NIH Swiss Webster mouse assessed as immobility time at 1 mg/kg, ip administered 30 mins prior to test measured during last 4 mins of the 6 mins observation time by forced swim test (reference value: 142 sec); assay type: functional, organism-based
[23] = target: Metabotropic glutamate receptor 8 (Homo sapiens, UniProt O00222); assay: Agonist activity at recombinant human mGlu8 receptor expressed in hamster AV12 cells co-expressing human EAAT1 assessed as induction of forskolin-stimulated cAMP formation after 20 mins by HTRF assay; assay type: functional, cell-based
[24] = Drug metabolism in rat microsomes at 4 uM after 30 mins; assay type: ADME, Microsome; conditions: read-out: Drug metabolism
[25] = Half life in rat at 1 mg/kg, iv; assay type: ADME, organism-based; conditions: in vivo
[26] = Antidepressant activity in NIH Swiss Webster mouse assessed as immobility time at 3 mg/kg, ip administered 30 mins prior to test measured during last 4 mins of the 6 mins observation time by forced swim test (reference value: 142 sec); assay type: functional, organism-based
[27] = Cmax in rat at 1 mg/kg, iv; assay type: ADME, organism-based; set-up: dose 1 mg/kg, route intravenous; conditions: in vivo
[28] = target: T4, Metabotropic glutamate receptor 5; assay: Agonist activity at recombinant human mGlu5 receptor expressed in hamster AV12 cells co-expressing human EAAT1/Galpha1s assessed as increase in Ca2+ flux by Fluo-3-AM dye based FLIPR assay; assay type: functional, cell-based
[29] = Tmax in rat at 10 mg/kg, ip; assay type: ADME, organism-based; conditions: in vivo
[30] = Plasma concentration in NIH Swiss Webster mouse at 1 mg/kg, ip at 30 mins; assay type: ADME, organism-based
[31] = Drug uptake in NIH Swiss Webster mouse brain at 1 mg/kg, ip at 30 mins; assay type: ADME, organism-based; conditions: read-out: Drug uptake
[32] = target: T2, Metabotropic glutamate receptor 1; assay: Agonist activity at recombinant human mGlu1 receptor expressed in hamster AV12 cells co-expressing human EAAT1/Galpha1s assessed as increase in Ca2+ flux by Fluo-3-AM dye based FLIPR assay; assay type: functional, cell-based
[33] = Tmax in rat at 5 mg/kg, po; assay type: ADME, organism-based; conditions: in vivo
[34] = target: Metabotropic glutamate receptor 7 (Homo sapiens, UniProt Q14831); assay: Agonist activity at recombinant human mGlu7 receptor expressed in hamster AV12 cells co-expressing human EAAT1/Galpha1s assessed as increase in Ca2+ flux by Fluo-3-AM dye based FLIPR assay; assay type: functional, cell-based
[35] = Drug metabolism in human microsomes at 4 uM after 30 mins; assay type: ADME, Microsome; conditions: read-out: Drug metabolism
[36] = target: T5, Metabotropic glutamate receptor 2; assay: Antagonist activity at recombinant human mGlu2 receptor expressed in hamster AV12 cells co-expressing human EAAT1 assessed as reduction of DCG-4-inhibited forskolin-stimulated cAMP formation after 20 mins by HTRF assay; assay type: functional, cell-based
[37] = target: T5, Metabotropic glutamate receptor 2; assay: Displacement of [3H]-LY459477 from human mGlu2 receptor expressed in hamster AV12 cell membranes co-expressing human EAAT1 after 90 mins by liquid scintillation counting method
Target sequence in this assay (Q14416 whole entry): as above

[38] = Oral bioavailability in rat at 5 mg/kg; assay type: ADME, organism-based; conditions: in vivo
[39] = target: T3, Metabotropic glutamate receptor 4; assay: Agonist activity at recombinant human mGlu4 receptor expressed in hamster AV12 cells co-expressing human EAAT1/Galpha1s assessed as increase in Ca2+ flux by Fluo-3-AM dye based FLIPR assay; assay type: functional, cell-based

T3 sequence (Q14833 whole entry): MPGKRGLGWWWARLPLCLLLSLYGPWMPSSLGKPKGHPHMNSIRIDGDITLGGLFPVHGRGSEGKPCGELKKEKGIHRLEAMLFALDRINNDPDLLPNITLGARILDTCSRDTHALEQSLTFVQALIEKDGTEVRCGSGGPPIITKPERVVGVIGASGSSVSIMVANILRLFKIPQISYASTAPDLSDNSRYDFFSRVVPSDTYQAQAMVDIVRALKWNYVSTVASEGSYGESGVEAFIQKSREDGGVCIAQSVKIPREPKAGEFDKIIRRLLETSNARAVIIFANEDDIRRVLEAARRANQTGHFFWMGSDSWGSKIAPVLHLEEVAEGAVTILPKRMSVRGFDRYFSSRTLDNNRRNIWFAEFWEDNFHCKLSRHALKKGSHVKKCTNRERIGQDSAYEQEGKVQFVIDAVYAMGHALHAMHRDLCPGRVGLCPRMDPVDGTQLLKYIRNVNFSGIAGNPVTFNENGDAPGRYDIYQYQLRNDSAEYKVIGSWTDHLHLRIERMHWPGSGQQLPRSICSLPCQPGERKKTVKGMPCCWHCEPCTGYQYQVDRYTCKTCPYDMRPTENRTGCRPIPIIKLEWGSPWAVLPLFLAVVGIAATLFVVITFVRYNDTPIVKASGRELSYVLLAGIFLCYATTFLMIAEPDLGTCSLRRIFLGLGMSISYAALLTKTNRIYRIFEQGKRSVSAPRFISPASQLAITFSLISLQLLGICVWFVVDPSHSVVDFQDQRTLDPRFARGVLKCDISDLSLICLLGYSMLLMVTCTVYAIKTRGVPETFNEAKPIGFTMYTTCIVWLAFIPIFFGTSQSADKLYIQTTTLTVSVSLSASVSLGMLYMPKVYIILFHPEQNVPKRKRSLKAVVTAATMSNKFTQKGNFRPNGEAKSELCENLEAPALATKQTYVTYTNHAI
T4 sequence (P41594 whole entry): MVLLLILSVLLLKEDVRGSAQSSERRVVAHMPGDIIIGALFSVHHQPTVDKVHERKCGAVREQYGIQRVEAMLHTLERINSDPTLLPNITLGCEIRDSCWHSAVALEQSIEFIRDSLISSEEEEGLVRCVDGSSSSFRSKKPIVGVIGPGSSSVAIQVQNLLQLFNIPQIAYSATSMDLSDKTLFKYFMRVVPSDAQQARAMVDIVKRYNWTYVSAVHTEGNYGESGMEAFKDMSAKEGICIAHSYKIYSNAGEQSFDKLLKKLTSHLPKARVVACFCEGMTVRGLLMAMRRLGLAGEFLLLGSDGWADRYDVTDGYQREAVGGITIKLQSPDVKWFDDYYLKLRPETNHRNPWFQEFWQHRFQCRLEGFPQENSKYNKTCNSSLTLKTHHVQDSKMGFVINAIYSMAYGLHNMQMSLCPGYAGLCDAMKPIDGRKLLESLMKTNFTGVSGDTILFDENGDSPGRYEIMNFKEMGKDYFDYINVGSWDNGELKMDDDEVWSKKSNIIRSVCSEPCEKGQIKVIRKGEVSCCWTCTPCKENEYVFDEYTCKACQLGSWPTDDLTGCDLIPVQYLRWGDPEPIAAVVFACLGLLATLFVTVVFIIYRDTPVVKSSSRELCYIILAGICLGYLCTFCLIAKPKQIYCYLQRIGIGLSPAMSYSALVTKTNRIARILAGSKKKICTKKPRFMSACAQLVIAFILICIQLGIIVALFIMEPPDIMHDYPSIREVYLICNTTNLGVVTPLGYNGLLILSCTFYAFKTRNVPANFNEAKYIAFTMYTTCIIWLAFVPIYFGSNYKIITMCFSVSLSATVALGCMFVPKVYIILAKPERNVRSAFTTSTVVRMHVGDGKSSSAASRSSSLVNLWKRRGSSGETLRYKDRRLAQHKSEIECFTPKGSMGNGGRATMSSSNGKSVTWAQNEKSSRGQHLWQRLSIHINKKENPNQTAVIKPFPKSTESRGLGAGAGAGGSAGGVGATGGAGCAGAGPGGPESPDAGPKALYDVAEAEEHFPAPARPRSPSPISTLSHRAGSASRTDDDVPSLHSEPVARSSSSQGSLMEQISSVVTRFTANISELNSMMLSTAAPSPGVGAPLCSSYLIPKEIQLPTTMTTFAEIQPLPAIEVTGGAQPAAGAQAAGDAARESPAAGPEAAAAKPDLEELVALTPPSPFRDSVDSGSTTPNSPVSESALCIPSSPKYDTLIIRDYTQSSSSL
T2 sequence (Q13255 whole entry): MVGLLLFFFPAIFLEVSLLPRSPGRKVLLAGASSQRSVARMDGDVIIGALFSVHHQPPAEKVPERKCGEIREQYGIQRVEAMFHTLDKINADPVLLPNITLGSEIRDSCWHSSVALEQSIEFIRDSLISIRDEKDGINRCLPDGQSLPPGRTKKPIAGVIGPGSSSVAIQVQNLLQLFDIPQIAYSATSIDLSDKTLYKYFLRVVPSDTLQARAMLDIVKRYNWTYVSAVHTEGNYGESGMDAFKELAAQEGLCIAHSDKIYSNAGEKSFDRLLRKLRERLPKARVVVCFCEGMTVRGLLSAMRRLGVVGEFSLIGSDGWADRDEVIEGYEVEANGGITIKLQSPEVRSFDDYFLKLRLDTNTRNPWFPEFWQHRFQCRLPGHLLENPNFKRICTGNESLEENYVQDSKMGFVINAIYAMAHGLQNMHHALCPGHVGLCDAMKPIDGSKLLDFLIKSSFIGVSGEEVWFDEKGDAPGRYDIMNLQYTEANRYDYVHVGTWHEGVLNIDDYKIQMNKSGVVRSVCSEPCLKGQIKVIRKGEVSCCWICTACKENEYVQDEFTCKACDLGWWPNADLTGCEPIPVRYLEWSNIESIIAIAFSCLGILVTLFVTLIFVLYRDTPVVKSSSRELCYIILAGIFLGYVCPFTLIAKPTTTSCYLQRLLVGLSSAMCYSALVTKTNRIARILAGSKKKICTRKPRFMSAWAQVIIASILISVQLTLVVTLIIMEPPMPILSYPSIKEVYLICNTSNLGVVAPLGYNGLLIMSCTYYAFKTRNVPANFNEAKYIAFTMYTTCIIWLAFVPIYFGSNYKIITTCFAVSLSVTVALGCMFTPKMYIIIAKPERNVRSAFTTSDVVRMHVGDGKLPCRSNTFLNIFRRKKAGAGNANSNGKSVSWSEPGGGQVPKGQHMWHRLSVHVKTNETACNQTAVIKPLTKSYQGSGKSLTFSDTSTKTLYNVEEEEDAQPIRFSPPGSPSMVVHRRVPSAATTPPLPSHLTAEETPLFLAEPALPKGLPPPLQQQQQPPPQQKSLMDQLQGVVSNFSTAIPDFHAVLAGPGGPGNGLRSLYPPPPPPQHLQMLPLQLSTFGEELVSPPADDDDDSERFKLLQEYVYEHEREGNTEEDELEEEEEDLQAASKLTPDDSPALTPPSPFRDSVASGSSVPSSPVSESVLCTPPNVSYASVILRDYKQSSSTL

SMILES: N[C@]1(C(=O)O)[C@@H]2[C@@H](C(=O)O)[C@@H]2[C@H](O)[C@H]1OCc1ccc(Cl)c(Cl)c1
- EC50 [1]: > 25 µM
- fraction unbound at 1 µM [2]: > 0.4
- IC50 [3]: > 12.5 µM
- half-life [4]: 269 min
- AUC [5]: 1783 nM·h
- half-life [6]: 329 min
- inhibition at 10 µM (CYP3A4): < 5%
- Ki [7]: > 100 µM
- concentration at 0.5 h [8]: 1290 nM
- concentration at 0.5 h [9]: 16.5 µM
- IC50 [10]: > 12.5 µM
- Cmax [11]: 48.1 µM
- inhibition (ABCB1 (P-gp)): < 1%
- EC50 [12]: > 12.5 µM
- solubility [13]: 778 µg/mL (≈ 2070 µM)
- Vd [14]: 0.589 L/kg
- metabolised at 0.5 h, 4 µM [15]: < 20%
- IC50 [16]: > 12.5 µM
- inhibition [17]: Active
- concentration at 0.5 h [18]: 248 nM
- Activity [19]: Dose-dependent effect
- EC50 [20]: > 25 µM
- Activity (Rattus norvegicus): Non-Toxic
- AUC(0-t) at 24 h [21]: 116 µM·h
- TIME [22]: 0.0272 h
- EC50 [23]: > 50 µM
- metabolised at 0.5 h, 4 µM [24]: < 20%
- half-life [25]: 277 min
- TIME [26]: 0.0167 h
- Cmax [27]: 33.9 µM
- EC50 [28]: > 25 µM
- Tmax [29]: 22.8 min
- concentration at 0.5 h [30]: 4.81 µM
- concentration at 0.5 h [31]: 72 nM
- EC50 [32]: > 25 µM
- Tmax [33]: 1.67 h
- EC50 [34]: > 25 µM
- metabolised at 0.5 h, 4 µM [35]: < 20%
- IC50 [36]: 46 nM
- Imax [36]: > 94%
- Ki [37]: 20.1 nM
- F [38]: 6%
- EC50 [39]: > 25 µM
